For assay [1], the system named is TNF Production by Human Monocytes. Put plainly: Inhibitory effect on in vitro LPS induced TNF production by human monocytes (ELISA). It is filed as cell-based. The note with it: Monocyte; LPS (50 ng/ml) induced TNF, human peripheral blood monocytes, compound added 1 hr before LPS, 24 hours; NA - not active; read-out: IC₅₀. As to the method:
The effects of the compounds enumerated above on the in vitro production of TNF by human monocytes was examined using the following protocol..
Bacterial lipopolysaccharide (LPS) was used to induce TNF production by human peripheral blood monocytes. TNF activity was measured by a modification of Winston et al., ELISA, described below. Human peripheral blood monocytes were isolated and purified from either fresh blood preparations from volunteer donors, from blood bank buffy coats, or from plateletpheresis residues according to the procedure of Colotta et al., J. Immunol., 132, 936 (1984). 1 X 10⁶ of such monocytes were plated in 24-well plates at a concentration of 1-2 million/ml per well. The cells were allowed to adhere for 2 hours, after which time non-adherent cells were removed by gentle washing. Test compounds were then added to the cells for 1 hour (hr) before the addition of LPS (50 ng/ml), and the cultures were incubated at 37 °C for an additional 24 hours. At the end of the incubation period, culture supernatants were removed and clarified of cells and all debris. Culture supernatants were immediately assayed for TNF levels in the manner described below.
Levels of TNF were mesured using a modification of the basic sandwich ELISA assay method described in Winston et al., Current Protocols in Molecular Biology. Page 11.2.1, Ausubel et al., Ed. (1987) John Wiley and Sons, New York, USA The Elisa employes a murine monoclonal anti-human TNF antibody, described below, as the capture antibody and a polyclonal rabbit anti-human TNF , described below, as the second antibody. For detection, a peroxidase-conjgated goat anti-rabbit antibody (Boehringer Mannheim, Indianopolis, Indiana, USA, Catalog #605222) was added followed by a substrate for peroxidase (1mg/ml orthophenylenediamine with 0.1% urea peroxide). TNF levels in samples were calculated from a standard curve genereated with recombinant human TNF produced in E. Coli (obtained from SmithKline Beecham Pharmaceuticals, King of Prussisa, PA, USA).
Monoclonal antibodies to human TNF were prepared from spleens of BALB/c mice immunized with recombinant human TNF using a modification of the method of Kohler and Millstein, Nature 256: 495(1975), the entire disclosure of which is hereby incorporated by reference. Polyclonal rabbit anti-human TNF antibodies were prepared by repeated immunization of New Zeland White (NZW) rabbits with recombinant human TNF emulsified in complete Freund's adjuvant (DIFCO, IL., USA).

Assay [2] concerns TNF. Nature of the assay: In vivo endotoxin shock models (P. acnes model and/or LPS-GAL model, not specified which). Details: species or system mice. The note with it: for in vivo TNF levels / protection from endotoxic induced shock: one or both of the in vivo assays (P. acnes / LPS-GAL). As to the method:
Two models of endotoxin shock have been utilized to determine in vivo TNF activity and are described below. The actual protocoll used in the models is described in Utility Model Examples A and B set out below, i.e. P. Acnes model and LPS-GAL model.
(§1) Briefly, D-gal ([…]) sensitizes various strains of mice to the lethal effects of endotoxin. The administration of D-gal (300-500mg/kg) intra-venously (i.v.) sensitizes the mice to doses of Lipopolysaccharide(LPS ) as low as 0.1 mg. Briefly, male C57BL/6 mice, obtained from Charles River Laboratories (Stone Ridge, New York, USA) of 6-12 weeks of age were injected i.v. with 0.1 mg of LPS from Salmonella typhosa (Difco Laboratories, Detroit, Michigan, USA) admixed with D(+)-gal (Sigma; 500 mg/kg) in 0.20-0.25 ml pyrogen-free saline. Compounds to be tested were administered at various times prior to or following the iv. injection of LPS/D-gal.
This model is a modification of the previously described protocol for the in vivo induction of TNF as described in Haranaka et al., Cancer Immunol Immunother, 18:87-90, (1984). Treatment with Proprionibacterium Acnes (P. acnes) (1mg/animal i.p.) renders mice susceptible to the lethal effects of LPS injected 10 days later.
P. acnes was purchased from Burroughs Wellcome (Triangle Park, North Carolina, USA), and […]of the heat-killed bacteria was administered in 0.5 ml pyrogen-free saline by intraperitoneal (i.p.) injection to male C57BL/6 mice, obtained from Charles River Laboratories (Stone Ridge, New York, USA) of 6-12 weeks of age. Ten days later, the mice were injected iv. with 1 mg LPS in 0.25 ml saline. Compounds to be tested were administered at various times prior to or following the injection of LPS. The survival of animals was monitored for 1 week.
(§2) Plasma levels of TNF were measured using a modification of the basic sandwich ELISA method described in Winston et al., Current Protocols in Molecular Biology, Pg. 11.2.1, Ausubel et al., Ed. (1987) John Wiley and Sons, New York, USA. The Elisa employed a hampster monoclonal anti-mouse TNF (Genzyme, Boston, MA, USA) as the capture antibody and a polyclonal rabbit anti-murine TNF (Genzyme, Boston, MA, USA) as the detecting antibody. TNF levels in rat samples were calculated from a standard curve genereated with recombinant murine TNF (Genzyme, Boston, MA, USA).

The subject of assay [3] is TNF. Nature of the assay: Endotoxin shock in D-gal-sensitized mice (LPS-GAL model), TNF levels by ELISA and survival. It is filed as in vivo. As to the method:
as §1, with “The protocol used to test the compound of the method of the subject invention was essentially as has been described in Galanos et al., Proc. Nat'l Acad. Sci USA, 76:5939-43 (1979) whose disclosure is herein incorporated by reference. Briefly, D-gal” for “Briefly, D-gal”, “of LPS/D-gal. In this model, the control animals usually die 5-6 hr. following the injection of LPS, although on occasion deaths are seen between 24 and 48 hr.” for “of LPS/D-gal.”
as §2, with “USA). TNF levels determined by ELISA correlated with levels detected by the L929 bioassay of Ruff et. al., J. Immunol. 125:1671-1677 (1980), with 1 Unit of activity in the bioassay corresponding to 70 picograms (pg) of TNF in the ELISA. The ELISA detected levels of TNF down to 25 pg/ml.” for “USA).”
On the technique in general: In an ELISA, binding on a coated surface is turned into a signal by an enzyme label.

The subject of the next assay is cyclooxygenase. The note with it: Lee et al. 1988; cited from earlier work.
In assay [4] the test system is TNFa production by monocytes. The note with it: Lee et al. 1988 and Badger et al. 1989; cited from earlier work.
The subject of a further assay is TNFa. The note with it: Badger et al. 1989, cited from earlier work.
Assay [5] has as its system IL-1 production by bacterial lipopolysaccharide (LPS)-stimulated human monocytes. The settings on record: cited from earlier work.
The next assay has as its target T1, 5-lipoxygenase (Homo sapiens, UniProt P09917).
T1 sequence (P09917 1-674): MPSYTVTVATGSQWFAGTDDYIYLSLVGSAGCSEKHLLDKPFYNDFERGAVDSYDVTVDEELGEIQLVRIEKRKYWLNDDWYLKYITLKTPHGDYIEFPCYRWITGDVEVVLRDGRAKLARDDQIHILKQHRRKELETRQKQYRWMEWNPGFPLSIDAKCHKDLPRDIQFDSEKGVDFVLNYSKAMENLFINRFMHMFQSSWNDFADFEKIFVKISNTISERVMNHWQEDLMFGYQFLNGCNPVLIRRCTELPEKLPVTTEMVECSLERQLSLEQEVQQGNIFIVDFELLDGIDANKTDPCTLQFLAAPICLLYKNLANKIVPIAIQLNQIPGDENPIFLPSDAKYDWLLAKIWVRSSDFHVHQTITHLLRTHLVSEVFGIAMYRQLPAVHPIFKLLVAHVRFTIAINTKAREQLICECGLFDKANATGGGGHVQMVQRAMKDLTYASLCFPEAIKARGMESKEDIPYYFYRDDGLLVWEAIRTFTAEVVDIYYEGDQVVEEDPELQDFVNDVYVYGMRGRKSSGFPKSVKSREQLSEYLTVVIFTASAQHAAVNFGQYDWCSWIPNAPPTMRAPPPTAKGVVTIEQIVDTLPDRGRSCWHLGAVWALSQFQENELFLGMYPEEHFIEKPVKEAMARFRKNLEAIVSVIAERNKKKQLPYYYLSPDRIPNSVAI
The settings on record: Lee et al. 1988; cited from earlier work.

Where two headings read alike, the source gives them in different places.

Turning to `CC[S+]([O-])c1ccc(-c2nc3n(c2-c2ccncc2)CCC3)cc1` (centres unmarked) [Compound 15, 2-(4-Ethylsulfinylphenyl)-3-(4-pyridyl)-6,7-dihydro[5H]pyrrolo[1,2-a]imidazole], in assay [1], the IC50 was determined as 7000 nM. Moreover, in the assay on TNF [2], the “in vivo TNF levels” value was “inhibited in vivo TNF levels” and the “protection from endotoxic induced shock” value is “protected the animals from endotoxic induced shock”.

As to `Fc1ccc(-c2nc3n(c2-c2ccncc2)CCS3)cc1` [Compound 1, 6-(4-Flurophenyl)-5-(4′pyridyl)-2,3-dihydroimidazo[2,1-b]-thiazole], the “reduction of serum TNF levels” value in the assay with TNF [3] (LPS-GAL Model, 100 mg/kg, Figure 4) is given as “reduction of serum TNF levels”. Moreover, in the assay with TNF [3] (LPS-GAL model, animals with endotoxic shock, Figure 5, control group 30%), the survival rate is 100%. Further, the TNF production result in the assay on TNF [3] (LPS-Gal mouse model, i.p. injection, Figure 3) is listed as “inhibitis TNF production”. In the assay with TNF [2] (P. Acnes model and LPS-GAL model), the “protection from the lethal effects of endotoxin shock” value is “protection from the lethal effects of endotoxin shock”. Moreover, in the assay with TNF [2], the “in vivo TNF levels” value is “reduce the in vivo level of tumor necrosis factor (TNF)”. Besides, the cyclooxygenase-mediated arachidonate metabolism entry in the assay with cyclooxygenase was “inhibits”. Further, in assay [4], the “TNFa production by monocytes” value is listed as “inhibit”. The “circulating levels of TNFa” value with TNFa (mouse models of LPS-induced shock) is “inhibition of circulating levels of TNFa”. In addition, in the assay with TNFa (two mouse models), the “protection against LPS-induced shock” value is listed as “protection”. For the same molecule, the IL-1 production entry was “inhibit” in assay [5] (Lee et al. 1988, listed as 5-(4-pyridyl)-6(4-fluorophenyl)-2,3-dihydroimidazo(2,1-B)-thiazole) and “potent inhibitor” in assay [5] (Lee et al. 1988, listed as 5-(4-pyridyl)-6(4-fluorophenyl)-2,3-dihydroimidazo(2,1-B)thiazole). The 5-lipoxygenase-mediated arachidonate metabolism entry at 5-lipoxygenase is recorded as “inhibits”.

For the molecule `COc1ccc(-c2nc3n(c2-c2ccncc2)CCC3)cc1` [Compound 10, 2-(4-Methoxyphenyl)-3-(4-pyridyl)-6,7-dihydro-[5H]-pyrrolo-[1,2-a]imidazole], the IC50 in assay [1] is 500 nM.

In the case of `CSc1ccc(-c2nc3n(c2-c2ccncc2)CCC3)cc1` [Compound 3, 2-(4-methylthiophenyl)-3-(4-pyridyl)-6,7-dihydro-[5H]-pyrrolo[1,2-a]-imidazole], in assay [1], the IC50 amounted to 1000 nM.

For `O=S1(=O)CCn2c1nc(-c1ccc(F)cc1)c2-c1ccncc1` [6-(4-Fluorophenyl)-5-(4-pyridyl)-2,3-dihydroimidazo[2,1-b]thiazole-1,1-dioxide], in the assay with TNF [2], the “in vivo TNF levels” value is “inhibited in vivo TNF levels” and the “protection from endotoxic induced shock” value is recorded as “protected the animals from endotoxic induced shock”.

As for `CSc1ccc(-c2nc3n(c2-c2ccnc(C)c2)CCC3)cc1` [Compound 16, 2-(4-Methylthiophenyl)-3-[4-(2-methylpyridyl)]-6,7-dihydro[5H]pyrrolo-[1,2-a]imidazole], the “in vivo TNF levels” value with TNF [2] is given as “inhibited in vivo TNF levels”.

As for `COc1ccc(-c2nc3n(c2-c2ccncc2)CCC3O)cc1` (centres unmarked) [Compound 8, 5,6-dihydro-2-(4-methoxyphenyl)-3-(4-pyridinyl)-[7H]-pyrrolo[1,2-a]-imidazole-7-ol], in assay [1], the IC50 was 1000 nM.

Regarding `CC(=O)OCSc1ccc(-c2nc3n(c2-c2ccncc2)CCC3)cc1` [Compound 9, 2-(4-Acetoxymethylthiophenyl)3-(4-pyridyl)-6,7-dihydro[5H]pyrrolo-[1,2-a]-imidazole], the IC50 in assay [1] was 3000 nM.

Consider `O=S1(=O)CCn2c1nc(-c1ccc(F)cc1)c2-c1ccncc1` [Compound 14, 6-(4-Fluorophenyl)-5-(4-pyridyl)-2,3-dihydroimidazo[2,1-b]thiazole-1,1-dioxide], for which the IC50 in assay [1] was 9000 nM.

The record behind these values is patent EP0403251A2, “Monokine activity interference” (SMITHKLINE BEECHAM CORPORATION, priority 1989, dated 1990).
